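Five compound concentrations were applied to cells in 96-well plates for 48 hours; endpoints were derived by simple linear interpolation of the resulting dose-response curve. GI50: concentration for 50% inhibition of growth.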 The source made the active and inactive calls. No stated cut-off is given here; in the data, active = GI50 up to about 1.1 µM and inactive = higher.
Columns and labels:
Assay in all cases: DTP human tumour cell line panel, 48 h
[1] = test system: SK-MEL-28
[2] = test system: NCI-H460
[3] = test system: NCI-H23
[4] = test system: UACC-257
[5] = test system: KM12
[6] = test system: HL-60
[7] = test system: DLD-1
[8] = test system: CAKI-1
[9] = test system: SF-539
[10] = test system: OVCAR-8
[11] = test system: IGROV-1
[12] = test system: CCRF-CEM
[13] = test system: SK-OV-3
[14] = test system: UO-31
[15] = test system: UACC-62
[16] = test system: LOX IMVI
[17] = test system: M14
[18] = test system: HCC 2998
[19] = test system: BT-549
[20] = test system: PC-3

| Compound | GI50 [1] | GI50 [2] | GI50 [3] | GI50 [4] | GI50 [5] | GI50 [6] | GI50 [7] | GI50 [8] | GI50 [9] | GI50 [10] | GI50 [11] | GI50 [12] | GI50 [13] | GI50 [14] | GI50 [15] | GI50 [16] | GI50 [17] | GI50 [18] | GI50 [19] | GI50 [20] |
| --- | --- | --- | --- | --- | --- | --- | --- | --- | --- | --- | --- | --- | --- | --- | --- | --- | --- | --- | --- | --- |
| N#Cc1ccccc1Nc1ccccc1S | 41.2 µM (inactive) | 35.2 µM (inactive) | 37.8 µM (inactive) | 57.3 µM (inactive) | 38.2 µM (inactive) | 25.3 µM (inactive) | 35.6 µM (inactive) | > 100 µM (inactive) | 17.7 µM (inactive) | 31.6 µM (inactive) | 26.9 µM (inactive) | 6.68 µM (inactive) | 57.1 µM (inactive) | 28.2 µM (inactive) | 19.1 µM (inactive) | 17.5 µM (inactive) |  |  |  |  |
| CCC(CC)C(=O)OC[n+]1cccc(-c2c(COC(=O)NC(C)C)c(COC(=O)NC(C)C)c3n2CCC3)c1 | > 100 µM (inactive) | 45.8 µM (inactive) | 61.1 µM (inactive) | > 100 µM (inactive) | > 100 µM (inactive) | 33.1 µM (inactive) |  | 49.4 µM (inactive) | 68.7 µM (inactive) | > 100 µM (inactive) | > 100 µM (inactive) | 38.4 µM (inactive) | > 100 µM (inactive) | > 100 µM (inactive) | 46.6 µM (inactive) | > 100 µM (inactive) | 56.9 µM (inactive) | > 100 µM (inactive) | > 100 µM (inactive) | > 100 µM (inactive) |
| Clc1cc(OCC23CC4CC(CC(C4)C2)C3)nc(OCC23CC4CC(CC(C4)C2)C3)n1 | > 100 µM (inactive) | > 100 µM (inactive) | > 100 µM (inactive) | > 100 µM (inactive) | > 100 µM (inactive) | > 100 µM (inactive) |  | > 100 µM (inactive) | > 100 µM (inactive) | > 100 µM (inactive) | > 100 µM (inactive) | > 100 µM (inactive) | > 100 µM (inactive) | > 100 µM (inactive) | > 100 µM (inactive) | > 100 µM (inactive) | > 100 µM (inactive) | > 100 µM (inactive) | > 100 µM (inactive) | > 100 µM (inactive) |
| CC[P+](c1ccccc1)(N(C)C)N(C)C | > 100 µM (inactive) | > 100 µM (inactive) | > 100 µM (inactive) | > 100 µM (inactive) | > 100 µM (inactive) | > 100 µM (inactive) |  | > 100 µM (inactive) | > 100 µM (inactive) | > 100 µM (inactive) | > 100 µM (inactive) | > 100 µM (inactive) | > 100 µM (inactive) | > 100 µM (inactive) | > 100 µM (inactive) | > 100 µM (inactive) | > 100 µM (inactive) | > 100 µM (inactive) | > 100 µM (inactive) | 60.5 µM (inactive) |
| Cc1cc(=O)n2c3c(c4c(cc13)c(CN(C)C)cc(=O)n4C)OC2 | 31.8 µM (inactive) | 4.46 µM (inactive) | 14 µM (inactive) | 21.9 µM (inactive) | 14.7 µM (inactive) | 22.2 µM (inactive) |  | 13.1 µM (inactive) | 7.18 µM (inactive) | 9.1 µM (inactive) | 9.51 µM (inactive) | > 24.8 µM (inactive) | 26.8 µM (inactive) | 8.04 µM (inactive) | 12.6 µM (inactive) | 13.2 µM (inactive) | 15.6 µM (inactive) | 6.93 µM (inactive) | 22 µM (inactive) | 19.9 µM (inactive) |
| CC(=O)NC1=C(NCCO)C(=O)c2ccccc2C1=O | > 50 µM (inactive) | > 50 µM (inactive) | > 50 µM (inactive) | > 50 µM (inactive) | > 50 µM (inactive) | 20.8 µM (inactive) | > 50 µM (inactive) |  | > 50 µM (inactive) | > 50 µM (inactive) | > 50 µM (inactive) | 42.6 µM (inactive) | > 50 µM (inactive) | > 50 µM (inactive) | > 50 µM (inactive) | > 50 µM (inactive) | > 50 µM (inactive) | > 50 µM (inactive) |  |  |
| O=C(O)c1cc(C(=O)O)nc(C(=O)O)c1 | > 100 µM (inactive) | > 100 µM (inactive) | > 100 µM (inactive) | > 100 µM (inactive) | > 100 µM (inactive) | > 100 µM (inactive) |  | > 100 µM (inactive) | > 100 µM (inactive) | > 100 µM (inactive) | > 100 µM (inactive) | 42.7 µM (inactive) | > 100 µM (inactive) | > 100 µM (inactive) | > 100 µM (inactive) | > 100 µM (inactive) | > 100 µM (inactive) | > 100 µM (inactive) | > 100 µM (inactive) | > 100 µM (inactive) |
| C=C[C@H]1C=Cc2c(OC)cccc2[C@@H]1COP1(=S)NC(C)C(c2ccccc2)O1 (stereo not given in full) | > 100 µM (inactive) | > 100 µM (inactive) | 50.1 µM (inactive) |  | > 100 µM (inactive) | 18.9 µM (inactive) | > 100 µM (inactive) |  | > 100 µM (inactive) | 81.5 µM (inactive) | > 100 µM (inactive) | 42 µM (inactive) | > 100 µM (inactive) |  | 84.5 µM (inactive) | 17.2 µM (inactive) | > 100 µM (inactive) | 92 µM (inactive) |  |  |
| Cc1cc(S(=O)(=O)Nc2nnc3cc(C(F)(F)F)cc(C)n23)c(S)cc1Cl | > 100 µM (inactive) | 19.5 µM (inactive) | > 100 µM (inactive) | > 100 µM (inactive) | 45.6 µM (inactive) | > 100 µM (inactive) |  | 97.5 µM (inactive) | 34.4 µM (inactive) | > 100 µM (inactive) | > 100 µM (inactive) | > 100 µM (inactive) | 38.3 µM (inactive) | 39.1 µM (inactive) | 56.4 µM (inactive) | > 100 µM (inactive) | 77.3 µM (inactive) | 33.7 µM (inactive) | > 35.2 µM (inactive) | > 95.3 µM (inactive) |
| Cc1n(Cc2ccccc2)c2c([n+]1C)C(=O)c1ccccc1C2=O | 0.0948 µM (active) | 0.108 µM (active) | 0.0434 µM (active) | 0.034 µM (active) | 0.0605 µM (active) | 0.0318 µM (active) |  | 3.15 µM (inactive) | 0.026 µM (active) | 0.0431 µM (active) | 0.0301 µM (active) | 0.456 µM (active) | 0.389 µM (active) | 4.57 µM (inactive) | 0.17 µM (active) | 0.0473 µM (active) | 0.0902 µM (active) | 0.236 µM (active) | 0.0822 µM (active) | 0.0838 µM (active) |
| CCCCC/N=C/c1c(O)c(O)c(C(C)C)c2cc(C)c(-c3c(C)cc4c(C(C)C)c(O)c(O)c(/C=N/CCCCC)c4c3O)c(O)c12 | 6.19 µM (inactive) | 5.65 µM (inactive) | 12 µM (inactive) | 15.6 µM (inactive) | 4.7 µM (inactive) | 3.94 µM (inactive) |  | 18 µM (inactive) | 6.08 µM (inactive) | 7.4 µM (inactive) | 9.98 µM (inactive) | 25.2 µM (inactive) | 7.06 µM (inactive) | 7.13 µM (inactive) | 7.03 µM (inactive) | 3.52 µM (inactive) | 38.1 µM (inactive) | 10.7 µM (inactive) | 7.87 µM (inactive) | 5.35 µM (inactive) |
| COc1ccc(N(C)CN(C)c2nc(N(C)C)nc(N(C)C)n2)cc1 | > 100 µM (inactive) | > 100 µM (inactive) | > 100 µM (inactive) | > 100 µM (inactive) | > 100 µM (inactive) | > 100 µM (inactive) | > 100 µM (inactive) | > 100 µM (inactive) | > 100 µM (inactive) | > 100 µM (inactive) | > 100 µM (inactive) | > 100 µM (inactive) | > 100 µM (inactive) | > 100 µM (inactive) | > 100 µM (inactive) | > 100 µM (inactive) | > 100 µM (inactive) |  |  |  |
| CN(C)CCCc1c[nH]c2ccccc12 | > 100 µM (inactive) | > 100 µM (inactive) | > 100 µM (inactive) | > 100 µM (inactive) | > 100 µM (inactive) | > 100 µM (inactive) |  | > 100 µM (inactive) | > 100 µM (inactive) | > 100 µM (inactive) | > 100 µM (inactive) | > 100 µM (inactive) | > 100 µM (inactive) | > 100 µM (inactive) | > 100 µM (inactive) | > 100 µM (inactive) | > 100 µM (inactive) | > 100 µM (inactive) | > 100 µM (inactive) | > 100 µM (inactive) |
| COC(=O)c1ccccc1C1CN=NC12Cc1c(C)ccc(C)c1C2=O (stereo not given) | > 100 µM (inactive) | > 100 µM (inactive) | > 100 µM (inactive) | > 100 µM (inactive) | > 100 µM (inactive) | 37.6 µM (inactive) |  | > 100 µM (inactive) | > 100 µM (inactive) | > 100 µM (inactive) | > 100 µM (inactive) | > 100 µM (inactive) | > 100 µM (inactive) | > 100 µM (inactive) | > 100 µM (inactive) | > 100 µM (inactive) | > 100 µM (inactive) | > 100 µM (inactive) | > 100 µM (inactive) | > 100 µM (inactive) |
| C/C(=N/NC(=O)C[n+]1ccccc1)C(CN(CC(C)C)CC(C)C)C(=O)Nc1ccc(C)cc1C (stereo not given) | > 100 µM (inactive) | > 100 µM (inactive) | > 100 µM (inactive) | > 100 µM (inactive) |  | 59.6 µM (inactive) | > 100 µM (inactive) |  | > 100 µM (inactive) | > 100 µM (inactive) | > 100 µM (inactive) | > 100 µM (inactive) | > 100 µM (inactive) | 15.1 µM (inactive) | > 100 µM (inactive) |  | > 100 µM (inactive) | > 100 µM (inactive) |  |  |
